{"source": "patent US20070179154A1", "about": "“Coumarin derivatives, process for their production and use thereof” (Takeda Pharmaceutical Company Limited, priority 2002, published 2007)", "key": {"[1]": {"target": "T1, mouse abdominal macrophage microsome ACAT (Mus musculus, UniProt Q61263)", "T1 construct": "from tissue; host or cells: microsomes of thioglycolate-elicited peritoneal (abdominal) macrophages of C57BL6J mice, cultured 24 h with rabbit beta-VLDL", "T1 sequence (Q61263 1-540)": "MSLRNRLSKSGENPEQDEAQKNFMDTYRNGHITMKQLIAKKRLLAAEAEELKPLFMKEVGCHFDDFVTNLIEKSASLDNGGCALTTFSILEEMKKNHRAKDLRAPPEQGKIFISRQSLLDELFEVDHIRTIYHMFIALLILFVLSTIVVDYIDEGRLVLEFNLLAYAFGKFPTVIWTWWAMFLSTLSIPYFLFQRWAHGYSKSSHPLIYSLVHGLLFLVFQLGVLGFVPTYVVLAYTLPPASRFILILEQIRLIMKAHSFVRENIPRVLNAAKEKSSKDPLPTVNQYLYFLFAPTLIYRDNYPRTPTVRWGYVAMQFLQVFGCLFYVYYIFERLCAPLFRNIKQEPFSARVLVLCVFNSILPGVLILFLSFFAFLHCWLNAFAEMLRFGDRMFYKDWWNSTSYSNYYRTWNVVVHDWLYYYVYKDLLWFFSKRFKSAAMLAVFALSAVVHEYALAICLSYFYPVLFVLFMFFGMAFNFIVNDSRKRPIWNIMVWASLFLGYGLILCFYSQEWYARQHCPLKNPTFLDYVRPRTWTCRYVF", "assay": "ACAT inhibitory activity (mouse abdominal macrophage microsome ACAT)", "format": "biochemical", "details": "microsome ACAT from thioglycolate-stimulated C57BL6J mouse abdominal macrophage; 3H-oleyl-CoA, 37° C. for 20 minutes; read-out: Enzyme inhibition (IC50)", "description": "[Preparation of Mouse Abdominal Macrophage Microsome ACAT]\nAccording to the method of Hakamada et al. (Experimental Medicine Suppliment vol. 14, No. 12, Circulation Research Protocol, p, 49-52, 1996), an abdominal macrophage was taken from a thioglycolate-stimulated C57BL6J mouse and cultured for 24 hours in a RPMI 1640-25 mM HEPES (pH7.0) medium containing rabbit β-very low density lipoprotein (β-VLDL, 150 μg cholesterol/ml) which had been prepared by the method of Ishii et al. (Ishii I et al., Arterioscler, Thromb, 12, 1139-1145, 1992). The abdominal macrophage was then collected by centrifugation (4° C., 1.000 rpm, 5 minutes) and sonicated. The sonicated liquid was centrifuged (4° C., 5000 rpm, 15 minutes) and then ultracentrifuged (4° C., 50, 000 rpm, 90 minutes) to prepare a microsome. The microsome thus obtained was used for measuring ACAT inhibitory activity of a test compound as mouse abdominal macrophage microsome ACAT.\n[Method for Measuring ACAT Inhibitory Activity]\nA mixture of a test compound, cholesterol-albumin-containing-Tris-HCL buffer (pH 7.5) and mouse abdominal macrophage microsome ACAT was pre-incubated at 37° C. for 10 minutes, and ^3H-oleyl-CoA was added to react at 37° C. for 20 minutes. A stopping solution composed of chloroform-methyl alcohol-distilled water (2:2:1 v/v) was added, and produced cholesteryl ester (CE) was extracted with shaking. The extract was subjected to silica gel thin chromatography (petroleum ether:diethyl ether:acetic acid=9:1:0.1 v/v), and the resulting ^3H-CE fraction was measured with a scintillation counter.\nACAT inhibiting rate was calculated from the proportion based on ACAT activity without a test compound, and an IC50 value was calculated as the concentration (μM) of a test compound showing ACAT inhibiting rate 50%. The results are shown in [Table 15]."}}, "data": [{"smiles": "O=C(O)CCc1cccc(-c2c(CC(=O)Nc3ccc(Cl)cc3C(F)(F)F)c(=O)oc3cc(Cl)c(CN4CCN(c5ccccc5)CC4)cc23)c1", "note": "[Example 115]", "values": [{"measurement": "IC50", "setting": "[1]", "result": 420, "unit": "nM"}, {"measurement": "melting point", "result": "207 to 209", "unit": "°C"}]}]}
